Ends that are not written are not given here.

One assay concerns the target T1, human uPA (Homo sapiens, UniProt P00749).
T1 construct: purchased ProsPec enz-264-c
In words: Inhibition of uPA catalytic activity, fluorogenic substrate. The format is biochemical. The following applies: PEP333 leader-core peptide, ProcM-modified; 1.5 nM human uPA; 50 µM Z-Gly-Gly-Arg 7-amido-4-methylcoumarin; 10 mM Tris-HCl pH 7.4, 5% DMSO; 25°C, 30 min; fluorescence 355/460 nm; experiment repeated three times; read-out: inhibitory constant Ki. On the procedure: Determination of inhibitory activit y of lanthipeptides
The inhibitory activities of ProcM-modified and non- modified anti-uPA peptides were determined as previously described2. In brief, 1.5 nM human uPA (ProsPec, # enz-264- c; purified by size exclusion chromatography) were incubated with 50 µM of the fluorogenic substrate Z-Gly-Gly-Arg 7 -am ido-4-methylcoumarin hydrochloride (Santa Cruz Biotechnology, # sc-208012) and different concentrations of anti-uPA peptides. Substrate and peptides were diluted in 10 mM Tris-HCl (pH 7.4), 150 mM NaCl, 10 mM MgCl2, 1 m M CaCl2, 0.1% (w v-1) BSA, 0.01% Triton X-100, 5% (v v-1) DMSO buff er. The uPA activity was measured by monitoring the change in fluorescence intensity after an incubation step at 25°C for 30 minutes (black 96 well plate with clear flat bottom, Corning CellBIND, # 3340; excitation at 355 nm, emission recorded at 460 nm, Tecan M200pro, […]). A […]
Anal ysis of phage-selected peptides by mass spectrometry
Samples were analyzed by FTMS using a Shimadzu UFLC system (Shimadzu, Den Bosch, The Netherlands) coupled on- line via the HESI interface with a LTQ–Orbitrap- XL mass spectrometer (Thermo Fisher Scientific., San Jose, CA). Samples were loaded onto an Acquity UPLC, BEH C18. 50 x 2.1mm, 1.7µM (Waters, Ireland). […]

In a further assay the test system is streptavidin. The assay can be described thus: ELISA for streptavidin binding of purified His6-tagged leader-core peptides. The following applies: plates coated with 100 nM streptavidin; for streptavidin binding, effect of reducing conditions: 10 mM DTT vs non-reducing; for streptavidin binding, dependence on ProcM co-expression: peptide produced with or without ProcM, 1 h room temperature, anti-His detection. On the procedure:
Peptide candidates identified by phage display were produced and purified as leader-core peptides as described above. 384 well Maxisorp plates were coated with uPA or streptavidin (100 nM each) overnight at 4 °C. After washing and blocking the plates as described above, serial dilutions of the peptide preparations in PBST containing 0.5% (w v^−1) BSA (and 10 mM DTT for anti-streptavidin replicates) were added in duplicate, and plates incubated for 1 h at room temperature, shaking. Detection of bound peptides with AP-conjugated anti-His IgG was performed as described above.

Assay [1] concerns nisin-sensitive L. lactis NZ9000. The assay can be described thus: Growth inhibition, filter-disc bioactivity assay (nisin). The format is cell-based. The following applies: NisA produced as C-terminal MBP fusion in E. coli with NisBC; 20 µM leader-core peptide, trypsin treated; 40 µl on filter disc. An excerpt: (§1) MBP IEGR His6 leader core peptide
(§2) LctA-core […] NisA-core […]
(§3) ProcM enz yme NisBC enzymes […]
(§4) modified KGGSGVIHAbuIAHEANMNAWQFVFDhbAAS modified IDhbAIDhaLAAbuPGAKAbuGALMGANMKAbuAAbuAHASIHVDhaK […]
(§5) 1: PBS + trypsin 1: PBS + trypsin
(§6) 2: Authentic lacticin 481 2: Authentic Nisin
(§7) 3: MBP_His6_P roc A 3. 3-LctA + trypsin 3: MBP_His6_NisA + trypsin
(§8) 4: MBP_His6_P roc A 3. 3-Lc tA + ProcM + trypsin 4: MBP_His6_NisA + NisBC + trypsin
(§9) Supplementary Figure 3 Bioactivit y assay of lanthipeptides produced as C-term inal fusions to MBP.
(§10) (a) Schem atic drawing of the MBP-fusion vector used for expression of a chim eric peptide consisting of the ProcA3.3 leader sequence fused to the core of LctA (left panel) and NisA (right panel; full sequences shown in Supplem entary Table 5). The sequence of the unm odified and m odified core peptides as reported in the literature are indicated1. The arrow indicates a tr ypsin cleavage site used to release the m ature core peptide. (b) Growth inhibition of lacticin 481- sensitive L. lactis cremonis (HP) by filter- disc spotted peptide solutions. (1) Trypsin treated PBS (negative control); (2) authentic lacticin 481 (positive control); (3) ProcA3.3-LctA produced as C-term inal MBP fusion in E. coli without ProcM co- expression and treated with tr yps in; (4) ProcA3.3- LctA produced as C-term inal MBP fusion in E. coli with ProcM co-ex pression and treated with tr ypsin. […]

The subject of assay [2] is lacticin 481-sensitive L. lactis cremonis (HP). The assay can be described thus: Growth inhibition, filter-disc bioactivity assay (lacticin 481). The format is cell-based, L. lactis subsp. cremonis (HP). The following applies: ProcA3.3-LctA produced as C-terminal MBP fusion in E. coli with ProcM; 20 µM leader-core peptide, trypsin treated; 40 µl on filter disc.
Source text: as §1, §2, §3, §4, §5, §6, §7, §8, §9, §10

In the case of “AICQIADATRTGENRKCLAAGPHHHHHH (also: sidechain bridge or staple (positions not given here)) [PEP333]”, the Ki – broadly, a measure of affinity in units of concentration, obtained from inhibition or displacement – at human uPA worked out at 564 nM. With “ANCIQHLTHSPTVHKYFCPAAGPHHHHHH (also: bicyclic or more (positions not given here)) [PEP331]”, in the assay with streptavidin, the “streptavidin binding, effect of reducing conditions” value was “only a slight reduction in binding was noticed in a reducing environment” and the “streptavidin binding, dependence on ProcM co-expression” value is “strictly dependent on post-translational modifications introduced by ProcM”. For the substance “IDhbAIDhaLAAbuPGAKAbuGALMGANMKAbuAAbuAHASIHVDhaK (bicyclic or more) [nisin, antimicrobial lantibiotic, expressed as C-terminal MBP fusion with NisBC]”, the antimicrobial activity result in assay [1] is listed as “confirmed their antimicrobial activity”. For “KGGSGVIHAbuIAHEANMNAWQFVFDhbAAS (bicyclic or more) [lacticin 481]”, the antimicrobial activity result in assay [2] was “confirmed their antimicrobial activity”. Consider “TNCGRKMSATYSGQKMYCIAAGPHHHHHH (also: bicyclic or more (positions not given here)) [PEP330]”, for which, in the assay with streptavidin, the “streptavidin binding, effect of reducing conditions” value is reported as “reducing conditions had only minor effects” and the “streptavidin binding, dependence on ProcM co-expression” value was “bound streptavidin regardless of ProcM co-expression”.

Values taken from article PMC5686179, “Phage display and selection of lanthipeptides on the carboxy-terminus of the gene-3 minor coat protein” (Nature Communications, 2017).
